Experimental data from US11691972B2, “Compounds for targeted degradation of BRD9” (C4 Therapeutics, Inc., priority 2020, dated 2023).

Biological target: T1, BRD9 (Homo sapiens, UniProt Q9H8M2)
T1 sequence (Q9H8M2 1-597): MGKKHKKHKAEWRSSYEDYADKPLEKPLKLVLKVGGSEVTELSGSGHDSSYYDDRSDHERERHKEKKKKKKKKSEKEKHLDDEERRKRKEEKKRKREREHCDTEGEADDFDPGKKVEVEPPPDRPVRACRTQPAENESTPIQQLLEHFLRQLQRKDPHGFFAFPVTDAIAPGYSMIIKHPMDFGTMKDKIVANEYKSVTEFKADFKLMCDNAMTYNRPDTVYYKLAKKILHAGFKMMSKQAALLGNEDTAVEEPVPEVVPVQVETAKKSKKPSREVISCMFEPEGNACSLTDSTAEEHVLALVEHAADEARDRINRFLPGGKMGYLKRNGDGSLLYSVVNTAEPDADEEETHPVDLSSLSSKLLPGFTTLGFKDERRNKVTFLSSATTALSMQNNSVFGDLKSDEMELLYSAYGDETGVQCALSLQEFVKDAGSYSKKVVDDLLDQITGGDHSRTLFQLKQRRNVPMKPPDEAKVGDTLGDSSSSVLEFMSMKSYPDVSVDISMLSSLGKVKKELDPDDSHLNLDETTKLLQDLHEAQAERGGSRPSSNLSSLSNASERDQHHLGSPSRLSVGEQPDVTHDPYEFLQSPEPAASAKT
Test: HiBiT BRD9 degradation assay in 293T.166 (BRD9-HiBiT) cells
Format: cell-based
Design: endogenously expressing BRD9 with HiBiT fusion tag via CRISPR; host or cells: 293T.166 (BRD9-HiBiT), also expressing LgBiT ectopically
Settings: Table 1; 293T.166 cells, 2.0 hours; class symbols; read-out: HiBiT-Degradation 293T.166 BRD9 2.0 hours (DC50)
Method: Selected compounds were tested in a BRD9 degradation assay using the HiBit Method.
Dulbecco's modified Eagle medium (DMEM) without phenol red and fetal bovine serum (FBS) were purchased from Gibco (Grand Island, N.Y., USA). Nano-Glo® HiBiT Lytic Assay System was purchased from Promega (Madison, Wis., USA). 293T.166 (BRD9-HiBiT) cell line, endogenously expressing BRD9 with HiBiT fusion tag via CRISPR and ectopically expressing LgBiT tag, was purchased from Promega (Madison, Wis., USA). 293T.167 (BRD7-HiBiT) cell line, endogenously expressing BRD7 with HiBiT fusion tag via CRISPR and ectopically expressing LgBiT tag, was purchased from Promega (Madison, Wis., USA). 293T.92 (BRD4-HiBiT) cell line, endogenously expressing BRD4 with HiBiT fusion tag via CRISPR and ectopically expressing LgBiT tag, was generated in-house. Cell culture flasks and 384-well microplates were acquired from VWR (Radnor, Pa., USA).
BRD9 degradation was determined based on quantification of luminescent signal using Nano-Glo® HiBiT Lytic Assay kit. Test compounds were added to the 384-well plate from a top concentration of 10 μM with 11 points, half log titration in duplicates. 293T.166 cells were added into 384-well plates at a cell density of 10,000 cells per well. The plates were kept at 37° C. with 5% CO2 for 2 hours. BRD7 and BRD4 degradation was similarly determined with 293T.167 cells and 293T.92 cells, respectively. The cells treated in the absence of the test compound were the negative control and the cells without Nano-Glo® HiBiT Lytic reagent were the positive control. After 2-hour incubation, Nano-Glo® HiBiT Lytic Assay reagents were added to the cells. Luminescence was acquired on EnVision™ Multilabel Reader (PerkinElmer, Santa Clara, Calif., USA).

Structure (SMILES) | DC50 [µM]
COc1cc(-c2cn(C)c(=O)c(C)c2C)cc(OC)c1CN1CCC(N2CCN(c3ccc(NC4CCC(=O)NC4=O)cc3F)CC2)C(F)(F)C1 (single isomer, unassigned) [Compound 174, 3-[4-[4-[1-[[2,6-dimethoxy-4-(1,4,5-trimethyl-6-oxo-3-pyridyl)phenyl]methyl]-3,3-difluoro-4-piperidyl]piperazin-1-yl]-3-fluoro-anilino]piperidine-2,6-dione] | < 0.1
CCOc1cc(-c2cn(C)c(=O)c3[nH]ncc23)c(OC)cc1CN1CCN(C(=O)CN2CCC(c3ccc(NC4CCC(=O)NC4=O)cc3)CC2)CC1 (stereo not shown) [Compound 22] | < 0.1
COc1cc(-c2cn(C)c(=O)c3[nH]ncc23)cc(Cl)c1CN1CCN(C(=O)CN2CCC(c3ccc(NC4CCC(=O)NC4=O)cc3)CC2)CC1 (stereo not shown) [Compound 12] | < 0.1
COc1cc(-c2cn(C)c(=O)c3cnccc23)cc(OC)c1CN1CCN(C(=O)CN2CCC(c3ccc(NC4CCC(=O)NC4=O)cc3)CC2)CC1 (stereo not shown) [Compound 15] | < 0.1
COc1cc(-c2cn(C)c(=O)c3ccccc23)cc(OC)c1CN1CCN(C(=O)CN2CCC(c3ccc(NC4CCC(=O)NC4=O)cc3)CC2)CC1 (stereo not shown) [Compound 28] | < 0.1
COc1cc(-c2cn(C)c(=O)c3[nH]ncc23)cc(F)c1CN1CCN(C(=O)CC2CCN(c3ccc(NC4CCC(=O)NC4=O)cc3)CC2)CC1 (stereo not shown) [Compound 49, 3-[4-[4-[2-[4-[[2-fluoro-6-methoxy-4-(6-methyl-7-oxo-1H-pyrazolo[3,4-c]pyridin-4-yl)phenyl]methyl]piperazin-1-yl]-2-oxo-ethyl]-1-piperidyl]anilino]piperidine-2,6-dione] | < 0.1
Cc1c(-c2ccc(C(=O)N3CCC(C4CCN(c5ccc(NC6CCC(=O)NC6=O)cc5F)CC4)CC3)c(OC(F)(F)F)c2)cn(C)c(=O)c1C (single isomer, unassigned) [Compound 214, 3-[3-fluoro-4-[4-[1-[2-(trifluoromethoxy)-4-(1,4,5-trimethyl-6-oxo-3-pyridyl)benzoyl]-4-piperidyl]-1-piperidyl]anilino]piperidine-2,6-dione] | < 0.1
COc1cc(-c2cn(C)c(=O)c3ccccc23)cc(OC)c1CN1CCc2c(CN3CCC(c4ccc(NC5CCC(=O)NC5=O)cc4)CC3)cccc2C1 (stereo not shown) [Compound 97] | < 0.1
COc1cc(-c2cn(C)c(=O)c3[nH]ncc23)cc(Cl)c1C(=O)N1CCC(C2CCN(c3ccc(NC4CCC(=O)NC4=O)cn3)CC2)CC1 (stereo not shown) [Compound 220] | < 0.1
COc1cc(-c2cn(C)c(=O)c3[nH]ncc23)cc(F)c1CN1CCN(C(=O)Cc2c(F)cc(NC3CCC(=O)NC3=O)cc2F)CC1 (stereo not shown) [Compound 164, 3-[3,5-difluoro-4-[2-[4-[[2-fluoro-6-methoxy-4-(6-methyl-7-oxo-1H-pyrazolo[3,4-c]pyridin-4-yl)phenyl]methyl]piperazin-1-yl]-2-oxo-ethyl]anilino]piperidine-2,6-dione] | 0.1 to 0.5
COc1cc(-c2cn(C)c(=O)c3ccccc23)cc(OC)c1CN1CCN(C(=O)CC2CCN(c3ccc(NC4CCC(=O)NC4=O)cc3C(F)(F)F)CC2)CC1 (stereo not shown) [Compound 62] | < 0.1
COc1cc(-c2cn(C)c(=O)c(C)c2C)cc(OC)c1CN1CCC(N2CCN(c3ccc(NC4CCC(=O)NC4=O)nc3)CC2)C(F)(F)C1 (stereo not shown) [Compound 195] | < 0.1
COc1cc(-c2cn(C)c(=O)c3[nH]ncc23)cc(OC)c1CN1CCc2c(CN3CCC(c4ccc(NC5CCC(=O)NC5=O)cc4)C(F)(F)C3)csc2C1 (stereo not shown) [Compound 103] | < 0.1
COc1cc(-c2cn(C)c(=O)c3cnccc23)cc(Cl)c1C(=O)N1CCC(C2CCN(c3ccc(NC4CCC(=O)NC4=O)nc3)CC2)CC1 (stereo not shown) [Compound 221] | < 0.1
Cc1c(-c2ccc(C(=O)N3CCC(N(C)C(=O)N4CCC(c5ccc(NC6CCC(=O)NC6=O)cc5F)CC4)CC3)c(OC(F)(F)F)c2)cn(C)c(=O)c1C (stereo not shown) [Compound 143] | < 0.1
COc1cc(-c2cn(C)c(=O)c3[nH]ncc23)cc(OC)c1CN1CCN(C(=O)CN2CCC(c3ccc(NC4CCC(=O)NC4=O)cc3)CC2)CC1 (single isomer, unassigned) [Compound 3] | < 0.1
